This assay deals with recombinant HLA-DR*0401. The class given is binding, human.

This is an account of results in PMC5808925 (Nature, 2017).

Take IKNKIDGETTDYAAPV: the “affinity for HLA-DR*0401” value is “high affinity”.
